# Legend:
# [1] = system: Hepatotoxicity;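 for DILI positive/negative: binary label assigned from drug-induced liver injury observed in pharmaceutical company records, forming the validation set for the DILIps prediction system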;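 for HepSE Combined Scores: combined hepatic side effect score as listed in the training data of the Drug Induced Liver Injury Prediction System (DILIps)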;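 for HepSE cirrhosis: cirrhosis hepatic side effect score taken from the DILIps (drug-induced liver injury prediction) training set; call rule not given here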;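 for HepSE elevated liver function tests: hepatic side effect score for raised liver function tests, as recorded in the DILIps training set used for predicting drug-induced liver injury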;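 for HepSE jaundice: Jaundice-related hepatic side-effect score drawn from the training data of the DILIps (drug-induced liver injury prediction system); call rule not given here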; for HepSE liver disease: call rule not given here;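 for HepSE liver function tests abnormal: hepatic side effect score taken from the DILIps (drug-induced liver injury prediction system) training data, here covering abnormal liver function test findings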
# [2] = system: Hepatotoxicity; remark: listed apart in the source;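 for DILI positive/negative: binary label assigned from drug-induced liver injury observed in pharmaceutical company records, forming the validation set for the DILIps prediction system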;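 for HepSE cirrhosis: cirrhosis hepatic side effect score taken from the DILIps (drug-induced liver injury prediction) training set; call rule not given here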;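 for HepSE elevated liver function tests: hepatic side effect score for raised liver function tests, as recorded in the DILIps training set used for predicting drug-induced liver injury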;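 for HepSE jaundice: Jaundice-related hepatic side-effect score drawn from the training data of the DILIps (drug-induced liver injury prediction system); call rule not given here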; for HepSE liver disease: call rule not given here;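 for HepSE liver function tests abnormal: hepatic side effect score taken from the DILIps (drug-induced liver injury prediction system) training data, here covering abnormal liver function test findings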
# [3] = system: Hepatotoxicity; remark: listed apart in the source;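 for DILI positive/negative: binary label assigned from drug-induced liver injury observed in pharmaceutical company records, forming the validation set for the DILIps prediction system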;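 for HepSE cirrhosis: cirrhosis hepatic side effect score taken from the DILIps (drug-induced liver injury prediction) training set; call rule not given here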;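 for HepSE elevated liver function tests: hepatic side effect score for raised liver function tests, as recorded in the DILIps training set used for predicting drug-induced liver injury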;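 for HepSE jaundice: Jaundice-related hepatic side-effect score drawn from the training data of the DILIps (drug-induced liver injury prediction system); call rule not given here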; for HepSE liver disease: call rule not given here;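 for HepSE liver function tests abnormal: hepatic side effect score taken from the DILIps (drug-induced liver injury prediction system) training data, here covering abnormal liver function test findings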
# [4] = system: Hepatotoxicity; remark: listed apart in the source;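 for DILI positive/negative: binary label assigned from drug-induced liver injury observed in pharmaceutical company records, forming the validation set for the DILIps prediction system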;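 for HepSE cirrhosis: cirrhosis hepatic side effect score taken from the DILIps (drug-induced liver injury prediction) training set; call rule not given here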;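 for HepSE elevated liver function tests: hepatic side effect score for raised liver function tests, as recorded in the DILIps training set used for predicting drug-induced liver injury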;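 for HepSE jaundice: Jaundice-related hepatic side-effect score drawn from the training data of the DILIps (drug-induced liver injury prediction system); call rule not given here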; for HepSE liver disease: call rule not given here;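 for HepSE liver function tests abnormal: hepatic side effect score taken from the DILIps (drug-induced liver injury prediction system) training data, here covering abnormal liver function test findings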
# [5] = system: Hepatotoxicity; remark: listed apart in the source; for HepSE liver disease: call rule not given here
# [6] = system: Hepatotoxicity; remark: listed apart in the source; for HepSE liver disease: call rule not given here
# [7] = system: Hepatotoxicity; remark: listed apart in the source
# [8] = system: Hepatotoxicity; remark: listed apart in the source
# [9] = system: Hepatotoxicity; remark: listed apart in the source
# [10] = system: Hepatotoxicity; remark: listed apart in the source
# [11] = system: Hepatotoxicity; remark: listed apart in the source
# [12] = system: Hepatotoxicity; remark: listed apart in the source
# [13] = system: Hepatotoxicity; remark: listed apart in the source
# [14] = system: Hepatotoxicity; remark: listed apart in the source
# [15] = system: Hepatotoxicity; remark: listed apart in the source
Compound,DILI positive/negative [1],HepSE_liver disease [2],HepSE_jaundice [3],HepSE_liver function tests abnormal [4],HepSE_elevated liver function tests [5],HepSE_cirrhosis [6],HepSE_Combined Scores [7],HepSE_cholelithiasis [8],HepSE_hepatic necrosis [9],HepSE_cholecystitis [10],HepSE_hepatomegaly [11],HepSE_hepatic failure [12],HepSE_bilirubinemia [13],HepSE_hepatitis [14],HepSE_liver fatty [15]
COc1cccc(OC)c1C(=O)N[C@@H]1C(=O)N2[C@@H]1SC(C)(C)[C@@H]2C(=O)[O-].[Na+],1,,,,,,,,,,,,,,
Cl.Nc1cc(Cl)cc(Cl)c1,0,,,,,,,,,,,,,,
O=C1NCN(c2ccccc2)C12CCN(CCCC(c1ccc(F)cc1)c1ccc(F)cc1)CC2,1,,,,,,,,,,,,,,
COLESTIPOL,,0,0,0,0,0,2,1,0,1,0,0,0,0,0
GADOBUTROL,,0,0,0,0,0,0,0,0,0,0,0,0,0,0
GADODIAMIDE,,0,0,0,0,0,0,0,0,0,0,0,0,0,0
GADOFOSVESET TRISODIUM,,0,0,0,0,0,0,0,0,0,0,0,0,0,0
GADOTERIDOL,,0,0,0,0,0,0,0,0,0,0,0,0,0,0
GENTAMICIN,,0,0,0,0,0,1,0,0,0,1,0,0,0,0
GLATIRAMER ACETATE,,0,0,0,0,1,5,1,0,1,1,0,0,1,0
GOLD SODIUM THIOMALATE,,0,1,0,0,0,2,0,0,0,0,1,0,0,0
HEPARIN,,1,0,0,0,0,1,0,0,0,0,0,0,0,0
HYDROXOCOBALAMIN,,0,0,0,0,0,0,0,0,0,0,0,0,0,0
IVERMECTIN,,0,0,0,0,0,0,0,0,0,0,0,0,0,0
MANGAFODIPIR,,0,0,0,0,0,0,0,0,0,0,0,0,0,0
NITROPRUSSIDE,,0,0,0,0,0,0,0,0,0,0,0,0,0,0
NYSTATIN,,0,0,0,0,0,0,0,0,0,0,0,0,0,0
OXALIPLATIN,,1,0,0,0,0,2,0,0,0,0,0,1,0,0
PORFIMER SODIUM,,0,1,0,0,0,1,0,0,0,0,0,0,0,0
SEVELAMER,,0,0,0,0,0,0,0,0,0,0,0,0,0,0
UROFOLLITROPIN,,0,0,0,0,0,0,0,0,0,0,0,0,0,0
VERTEPORFIN,,0,0,0,1,0,1,0,0,0,0,0,0,0,0
VITAMIN B12,,0,0,0,0,0,0,0,0,0,0,0,0,0,0
